ChEMBL document CHEMBL3797052 (Eur J Med Chem, 2016)

Columns and labels:
[1] = tested on: U-251; test: Antiproliferative activity against human U251 cells assessed as cell growth at 10^-8 M after 48 hrs by sulforhodamine B assay; assay type: functional; conditions: U-251, 48 h, read-out: Activity
[2] = tested on: SR; test: Antiproliferative activity against human SR cells assessed as growth inhibition after 48 hrs by sulforhodamine B assay; assay type: functional
[3] = Antiproliferative activity against human SF295 cells assessed as cell growth at 10^-7 M after 48 hrs by sulforhodamine B assay; assay type: functional; conditions: SF-295, 48 h, read-out: Activity
[4] = Antiproliferative activity against human BT549 cells assessed as cell growth at 10^-6 M after 48 hrs by sulforhodamine B assay; assay type: functional; conditions: BT-549, 48 h, read-out: Activity
[5] = Antiproliferative activity against human BT549 cells assessed as cell growth at 10^-7 M after 48 hrs by sulforhodamine B assay; assay type: functional; conditions: BT-549, 48 h, read-out: Activity
[6] = Antiproliferative activity against human TK10 cells assessed as cell growth at 10^-8 M after 48 hrs by sulforhodamine B assay; assay type: functional; conditions: TK-10, 48 h, read-out: Activity
[7] = tested on: KM12; test: Antiproliferative activity against human KM12 cells assessed as cell growth at 10^-8 M after 48 hrs by sulforhodamine B assay; assay type: functional; conditions: KM12, 48 h, read-out: Activity
[8] = Antiproliferative activity against human HL-60(TB) cells assessed as cell growth at 10^-4 M after 48 hrs by sulforhodamine B assay; assay type: functional; conditions: HL-60, 48 h, read-out: Activity
[9] = Antiproliferative activity against human LOXIMVI cells assessed as cell growth at 10^-7 M after 48 hrs by sulforhodamine B assay; assay type: functional; conditions: LOX IMVI, read-out: Activity
[10] = Antiproliferative activity against human DU145 cells assessed as cell growth at 10^-6 M after 48 hrs by sulforhodamine B assay; assay type: functional; conditions: DU-145, 48 h, read-out: Activity
[11] = Antiproliferative activity against human HOP62 cells assessed as cell growth at 10^-7 M after 48 hrs by sulforhodamine B assay; assay type: functional; conditions: HOP-62, 48 h, read-out: Activity
[12] = Antiproliferative activity against human UO31 cells assessed as cell growth at 10^-8 M after 48 hrs by sulforhodamine B assay; assay type: functional; conditions: UO-31, 48 h, read-out: Activity
[13] = Antiproliferative activity against human TK10 cells assessed as growth inhibition after 48 hrs by sulforhodamine B assay; assay type: functional; conditions: TK-10, 48 h; for CC50: read-out: LC50 (the source's name)
[14] = tested on: MDA-MB-468; test: Antiproliferative activity against human MDA-MB-468 cells assessed as cell growth at […] after 48 hrs by sulforhodamine B assay; assay type: functional; conditions: MDA-MB-468, 48 h, read-out: Activity
[15] = Antiproliferative activity against human NCI-ADR-RES cells assessed as cell growth at 10^-4 M after 48 hrs by sulforhodamine B assay; assay type: functional; conditions: read-out: Activity
[16] = tested on: Malme-3M; test: Antiproliferative activity against human MALME-3M cells assessed as cell growth at 10^-4 M after 48 hrs by sulforhodamine B assay; assay type: functional; conditions: read-out: Activity
[17] = tested on: HT-29; test: Antiproliferative activity against human HT-29 cells assessed as growth inhibition after 48 hrs by sulforhodamine B assay; assay type: functional; conditions: HT-29, 48 h
[18] = Antiproliferative activity against human PC3 cells assessed as cell growth at 10^-6 M after 48 hrs by sulforhodamine B assay; assay type: functional; conditions: PC-3, 48 h, read-out: Activity
[19] = tested on: NCI-H226; test: Antiproliferative activity against human NCI-H226 cells assessed as cell growth at 10^-8 M after 48 hrs by sulforhodamine B assay; assay type: functional; conditions: NCI-H226, 48 h, read-out: Activity
[20] = tested on: MDA-MB-231; test: Antiproliferative activity against human MDA-MB-231 cells assessed as cell growth at 10^-4 M after 48 hrs by sulforhodamine B assay; assay type: functional; conditions: MDA-MB-231, 48 h, read-out: Activity
[21] = Antiproliferative activity against human HCT15 cells assessed as growth inhibition after 48 hrs by sulforhodamine B assay; assay type: functional; conditions: HCT-15, 48 h
[22] = Antiproliferative activity against human OVCAR3 cells assessed as cell growth at 10^-6 M after 48 hrs by sulforhodamine B assay; assay type: functional; conditions: OVCAR-3, 48 h, read-out: Activity
[23] = tested on: SK-MEL-28; test: Antiproliferative activity against human SK-MEL-28 cells assessed as cell growth at 10^-6 M after 48 hrs by sulforhodamine B assay; assay type: functional; conditions: SK-MEL-28, 48 h, read-out: Activity
[24] = Antiproliferative activity against human DU145 cells assessed as growth inhibition after 48 hrs by sulforhodamine B assay; assay type: functional; conditions: DU-145, 48 h; for CC50: read-out: LC50 (the source's name)
[25] = Antiproliferative activity against human OVCAR3 cells assessed as cell growth at 10^-7 M after 48 hrs by sulforhodamine B assay; assay type: functional; conditions: OVCAR-3, 48 h, read-out: Activity
[26] = tested on: EKVX; test: Antiproliferative activity against human EKVX cells assessed as growth inhibition after 48 hrs by sulforhodamine B assay; assay type: functional; conditions: for CC50: read-out: LC50 (the source's name)
[27] = Antiproliferative activity against human NCI-ADR-RES cells assessed as growth inhibition after 48 hrs by sulforhodamine B assay; assay type: functional
[28] = Antiproliferative activity against human HL-60(TB) cells assessed as cell growth at 10^-6 M after 48 hrs by sulforhodamine B assay; assay type: functional; conditions: HL-60, 48 h, read-out: Activity
[29] = Antiproliferative activity against human IGROV1 cells assessed as cell growth at 10^-7 M after 48 hrs by sulforhodamine B assay; assay type: functional; conditions: IGROV-1, 48 h, read-out: Activity
[30] = biological target: CYP2C9 (Homo sapiens, UniProt P11712); test: Inhibition of recombinant human CYP2C9 assessed as remaining enzyme activity using CYP2C9 green as substrate at 10 uM after 5 mins in presence of NADP by fluorescence plate reader analysis; assay type: ADME; conditions: recombinant human CYP2C9, probe CYP2C9 green, read-out: Activity
[31] = tested on: MDA-MB-231; test: Antiproliferative activity against human MDA-MB-231 cells assessed as cell growth at 10^-6 M after 48 hrs by sulforhodamine B assay; assay type: functional; conditions: MDA-MB-231, 48 h, read-out: Activity
[32] = Antiproliferative activity against human COLO205 cells assessed as growth inhibition after 48 hrs by sulforhodamine B assay; assay type: functional; conditions: COLO 205, 48 h; for CC50: read-out: LC50 (the source's name)
[33] = tested on: A549; test: Antiproliferative activity against human A549/ATCC cells assessed as cell growth at […] after 48 hrs by sulforhodamine B assay; assay type: functional; conditions: A549, 48 h, read-out: Activity
[34] = tested on: K562; test: Antiproliferative activity against human K562 cells assessed as cell growth at 10^-4 M after 48 hrs by sulforhodamine B assay; assay type: functional; conditions: K562, 48 h, read-out: Activity
[35] = tested on: NCI-H23; test: Antiproliferative activity against human NCI-H23 cells assessed as growth inhibition after 48 hrs by sulforhodamine B assay; assay type: functional; conditions: NCI-H23, 48 h

Sequence of CYP2C9 (P11712 whole entry): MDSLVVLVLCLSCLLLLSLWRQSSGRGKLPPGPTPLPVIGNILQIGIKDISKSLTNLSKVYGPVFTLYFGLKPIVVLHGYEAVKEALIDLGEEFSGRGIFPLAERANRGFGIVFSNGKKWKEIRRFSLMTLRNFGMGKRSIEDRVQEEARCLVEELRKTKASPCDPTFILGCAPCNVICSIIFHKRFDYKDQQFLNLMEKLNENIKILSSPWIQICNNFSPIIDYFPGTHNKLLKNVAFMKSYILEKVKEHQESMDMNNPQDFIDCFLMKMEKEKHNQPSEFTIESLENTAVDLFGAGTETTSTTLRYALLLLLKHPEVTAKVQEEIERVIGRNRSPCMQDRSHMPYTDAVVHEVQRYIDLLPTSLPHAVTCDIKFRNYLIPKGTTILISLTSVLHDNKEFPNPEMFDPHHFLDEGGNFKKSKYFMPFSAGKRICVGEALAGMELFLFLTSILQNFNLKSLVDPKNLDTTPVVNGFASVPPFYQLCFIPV

Compound: CNC(=O)c1cc(Oc2ccc3nc(NC(=O)c4cc(C(F)(F)F)cc(C(F)(F)F)c4)sc3c2)ccn1
- growth at 0.01 µM [1]: 98%
- GI50 [2]: 3.37 µM
- LC50 [2]: > 100 µM
- TGI [2]: 15 µM
- growth at 0.1 µM [3]: 89%
- growth at 1 µM [4]: 92%
- growth at 0.1 µM [5]: 86%
- growth at 0.01 µM [6]: 95%
- growth at 0.01 µM [7]: 101%
- growth at 100 µM [8]: -45%
- growth at 0.1 µM [9]: 96%
- growth at 1 µM [10]: 94%
- growth at 0.1 µM [11]: 92%
- growth at 0.01 µM [12]: 85%
- GI50 [13]: 3.37 µM
- TGI [13]: 13.3 µM
- CC50 [13]: 74.9 µM
- growth at 0.01 µM [14]: 92%
- growth at 100 µM [15]: -38%
- growth at 100 µM [16]: -38%
- GI50 [17]: 3.86 µM
- LC50 [17]: 96.9 µM
- TGI [17]: 16.8 µM
- growth at 1 µM [18]: 80%
- growth at 0.01 µM [19]: 99%
- growth at 100 µM [20]: -67%
- GI50 [21]: 3.97 µM
- LC50 [21]: > 100 µM
- TGI [21]: 25.1 µM
- growth at 1 µM [22]: 90%
- growth at 1 µM [23]: 87%
- GI50 [24]: 3.69 µM
- TGI [24]: 15.9 µM
- CC50 [24]: 65 µM
- growth at 0.1 µM [25]: 102%
- GI50 [26]: 3.43 µM
- TGI [26]: 23.3 µM
- CC50 [26]: > 100 µM
- GI50 [27]: 3.67 µM
- LC50 (concentration killing 50% of cells) [27]: > 100 µM
- TGI [27]: 19.1 µM
- growth at 1 µM [28]: 114%
- growth at 0.1 µM [29]: 98%
- activity at 5 min, 10 µM [30]: 32.7%
- growth at 1 µM [31]: 114%
- GI50 [32]: 2.82 µM
- TGI [32]: 8.21 µM
- CC50 [32]: 32.8 µM
- growth at 0.1 µM [33]: 101%
- growth at 100 µM [34]: 4%
- GI50 [35]: 3.37 µM
- LC50 [35]: > 100 µM
- TGI [35]: 17.7 µM

Compound: CNC(=O)c1cc(Oc2ccc3nc(NC(=O)Nc4ccc(Cl)c(Cl)c4)sc3c2)ccn1
- growth at 0.01 µM [1]: 98%
- GI50 [2]: 6.47 µM
- LC50 [2]: > 100 µM
- TGI [2]: > 100 µM
- growth at 0.1 µM [3]: 90%
- growth at 1 µM [4]: 102%
- growth at 0.1 µM [5]: 104%
- growth at 0.01 µM [6]: 107%
- growth at 0.01 µM [7]: 98%
- growth at 100 µM [8]: 89%
- growth at 0.1 µM [9]: 93%
- growth at 1 µM [10]: 97%
- growth at 0.1 µM [11]: 112%
- growth at 0.01 µM [12]: 86%
- GI50 [13]: 3.46 µM
- TGI [13]: 9.26 µM
- CC50 [13]: > 100 µM
- growth at 0.01 µM [14]: 94%
- growth at 100 µM [15]: -49%
- growth at 100 µM [16]: -75%
- GI50 [17]: 2.16 µM
- TGI [17]: 4.31 µM
- growth at 1 µM [18]: 92%
- growth at 0.01 µM [19]: 104%
- growth at 100 µM [20]: -44%
- GI50 [21]: 3.71 µM
- LC50 [21]: > 100 µM
- TGI [21]: > 100 µM
- growth at 1 µM [22]: 99%
- growth at 1 µM [23]: 88%
- GI50 [24]: 2.45 µM
- TGI [24]: 6.29 µM
- CC50 [24]: > 100 µM
- growth at 0.1 µM [25]: 102%
- GI50 [26]: 3.3 µM
- TGI [26]: > 100 µM
- CC50 [26]: > 100 µM
- GI50 [27]: 2.3 µM
- LC50 (concentration killing 50% of cells) [27]: > 100 µM
- TGI [27]: 5.09 µM
- growth at 1 µM [28]: 105%
- growth at 0.1 µM [29]: 92%
- activity at 5 min, 10 µM [30]: 90%
- growth at 1 µM [31]: 85%
- GI50 [32]: 4.25 µM
- TGI [32]: > 100 µM
- CC50 [32]: > 100 µM
- growth at 0.1 µM [33]: 96%
- growth at 100 µM [34]: 53%
- GI50 [35]: 2.78 µM
- LC50 [35]: > 100 µM
- TGI [35]: > 100 µM
